Reference: patent US20140179609A1, “Whey protein hydrolysate containing tryptophan peptide consisting of alpha lactalbumin and the use thereof” (Technische Universität Dresden, priority 2008, published 2014)
Where a SMILES comes first, the peptide text is derived from it.

B1: trypsin: trypsin obtained from porcine pancreas (EC 3.4.21.4), heat-inactivated hydrolysis enzyme (protein, UniProt P00761 9-231, looked up)
Trypsin: IVGGYTCAANSIPYQVSLNSGSHFCGGSLINSQWVVSAAHCYKSRIQVRLGEHNIDVLEGNEQFINAAKIITHPNFNGNTLDNDIMLIKLSSPATLNSRVATVSLPRSCAAAGTECLISGWGNTKSSGSSYPSLLQCLKAPVLSDSSCKSSYPGQITGNMICVGFLEGGKDSCQGDSGGPVVCNGQLQGIVSWGYGCAQKNKPGVYTKVCNYVNWIQQTIAAN
B2: Alcalase: protease from Bacillus licheniformis, heat-inactivated hydrolysis enzyme (protein, UniProt P00780 106-379, looked up)
Subtilisin Carlsberg: AQTVPYGIPLIKADKVQAQGFKGANVKVAVLDTGIQASHPDLNVVGGASFVAGEAYNTDGNGHGTHVAGTVAALDNTTGVLGVAPSVSLYAVKVLNSSGSGSYSGIVSGIEWATTNGMDVINMSLGGASGSTAMKQAVDNAYAKGVVVVAAAGNSGSSGNTNTIGYPAKYDSVIAVGAVDSNSNRASFSSVGAELEVMAPGAGVYSTYPTNTYATLNGTSMASPHVAGAAALILSKHPNLSASQVRNRLSSTATYLGSSFYYGKGLINVEAAAQ

How the values were obtained:
proteases = assay: Stability of the dipeptides during enzymatic hydrolysis of whey protein (detection by GPC / LC-ESI-TOF-MS); conditions: hydrolysis with trypsin, Alcalase, Flavourzyme; found by GPC in all hydrolysates after three hours
Method: The whey protein Milei60 was hydrolyzed enzymatically by proteolytically acting enzymes, i.e., trypsin obtained from porcine pancreas (EC 3.4.21.4) as well as two further proteases, i.e., Alcalase® (Bacillus licheniformis) and Flavourzyme (Aspergillus oryzae). The following Table illustrates how hydrolysis is carried out.
The release of dipeptides Trp-Leu and Ile-Trp according to the invention during the course of hydrolysis was analyzed by GPC and LC-ESI-TOF-MS (liquid chromatography/electrospray ionization time of flight mass spectrometry).
In GPC the identification of the dipeptides was carried out by comparison with peaks of the standard peptides that were carried along.
The strongly ACE-inhibiting peptide Ile-Trp was detected unequivocally in the hydrolysates after a hydrolysis duration of three hours. Therefore, it appears to be accessible for the proteases only after a certain time has lapsed; this is true also for Trp-Leu.

ACE = biological target: T1, ACE (Oryctolagus cuniculus, UniProt P12822); assay: ACE activity test (substrate HHL, hippuric acid quantified by RP HPLC); type: biochemical, rabbit; conditions: for IC50: dipeptides from Bachem, test as in Example 2, read-out: IC50 [μM] ACE-inhibiting activity; for ACE inhibiting action (in words): samples heat-treated at 100° C. for 10 minutes
T1 construct: The employed ACE is the rabbit lung enzyme obtained from Sigma-Aldrich; purchased Sigma-Aldrich; host or cells: rabbit lung (tissue-derived enzyme)
T1 sequence (P12822 34-1310): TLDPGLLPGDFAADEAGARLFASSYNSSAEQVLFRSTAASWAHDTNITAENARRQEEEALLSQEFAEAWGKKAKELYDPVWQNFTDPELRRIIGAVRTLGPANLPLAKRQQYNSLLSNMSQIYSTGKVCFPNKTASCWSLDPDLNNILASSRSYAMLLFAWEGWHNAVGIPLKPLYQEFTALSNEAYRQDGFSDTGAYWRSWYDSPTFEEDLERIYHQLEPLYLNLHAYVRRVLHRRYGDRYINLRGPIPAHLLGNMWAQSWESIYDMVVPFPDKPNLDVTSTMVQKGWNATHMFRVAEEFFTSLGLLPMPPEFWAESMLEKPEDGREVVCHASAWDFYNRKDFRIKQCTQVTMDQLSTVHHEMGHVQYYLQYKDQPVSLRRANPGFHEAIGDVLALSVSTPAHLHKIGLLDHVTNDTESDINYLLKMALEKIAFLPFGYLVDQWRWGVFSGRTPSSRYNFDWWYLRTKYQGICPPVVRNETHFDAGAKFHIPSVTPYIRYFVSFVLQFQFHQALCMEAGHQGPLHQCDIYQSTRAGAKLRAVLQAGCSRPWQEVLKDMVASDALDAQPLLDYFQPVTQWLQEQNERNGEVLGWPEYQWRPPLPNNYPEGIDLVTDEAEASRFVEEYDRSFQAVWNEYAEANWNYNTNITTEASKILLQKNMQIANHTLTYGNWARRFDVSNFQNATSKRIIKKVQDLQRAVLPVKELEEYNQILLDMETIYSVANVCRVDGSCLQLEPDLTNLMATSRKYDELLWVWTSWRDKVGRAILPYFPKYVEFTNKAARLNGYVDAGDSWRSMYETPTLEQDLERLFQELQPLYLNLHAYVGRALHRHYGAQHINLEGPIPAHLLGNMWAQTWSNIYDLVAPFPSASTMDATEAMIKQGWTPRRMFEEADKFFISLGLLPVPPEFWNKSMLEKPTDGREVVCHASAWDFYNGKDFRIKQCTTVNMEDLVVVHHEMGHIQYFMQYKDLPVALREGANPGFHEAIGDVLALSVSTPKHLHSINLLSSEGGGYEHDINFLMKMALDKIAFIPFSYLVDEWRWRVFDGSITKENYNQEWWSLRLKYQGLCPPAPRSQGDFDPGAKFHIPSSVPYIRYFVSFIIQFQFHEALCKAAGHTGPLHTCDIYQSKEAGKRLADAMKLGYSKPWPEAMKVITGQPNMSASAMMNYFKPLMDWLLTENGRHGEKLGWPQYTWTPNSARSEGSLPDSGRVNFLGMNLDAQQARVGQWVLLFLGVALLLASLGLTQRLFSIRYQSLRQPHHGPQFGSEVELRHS
Method: The determination of the ACE activity of the protein hydrolysates was carried out similar to a test disclosed by Cushman and Cheung in […] (Cushman, D. W. and Cheung, H.-S. Spectrophotometric Assay and Properties of Angiotensin-Converting Enzyme of Rabbit Lung, Biochemical Pharmacology, 1971, 20, 1637-1648). However, several modifications were carried out. The employed ACE is the rabbit lung enzyme obtained from Sigma-Aldrich. As a substrate N-benzoyl-glycyl-L-histidyl-L-leucin (HHL) was used which is considered to be analog to the natural substrate angiotensin I. ACE catalyzes the hydrolysis to L-histidyl-L-leucin (HL) and N-benzoyl-glycin (hippuric acid):
Since hippuric acid is UV-active (λmax=228 nm), it is possible, based on its contents determined by RP HPLC, to define the conversion rate and thus the enzyme activity. By means of a concentration series of the respective inhibitor solution, the inhibitor concentration can be determined that is required for lowering the ACE activity by one half (IC50).
In each series of measurements two enzyme blind values were carried along in which, in place of the sample solution, the same volume of double distilled water had been added. The blind value corresponds to 100% ACE activity. Calculation of the IC50 values was done by the software program SigmaPlot 5.0.
In addition to the samples that had been incubated for different lengths of time, also a blind value sample was analyzed that contained all employed enzymes and the whey protein powder in the same concentration as the hydrolysis samples. However, after addition of all substances, the enzymatic action was inactivated immediately by 10-minute incubation at 100° C. Also, possible effects by individual compounds on ACE were tested. For this purpose, the enzymes were inactivated and individually tested with respect to possible ACE inhibiting action. The same procedure was carried out with the whey protein powder. Whey protein powder that was not heat-treated was also tested with respect to its inhibiting action. For the determination of the IC50 value of the hydrolysis samples several concentrations were used in the ACE activity test. A protein concentration of 1000 mg protein/I was used as the basis. This parent solution was diluted 1:2, 1:5, 1:10, 1:20, 1:50, 1:100 and all solutions were tested with respect to their ACE inhibiting effect. Evaluation was also done with SigmaPlot 5.0.
In Table 12 the parameters measured by RP HPLC and LC-ESI-TOF-MS for the dipeptides according to the invention are listed. The Table contains also the IC50 values that were obtained for the dipeptides. […]

[1] = tested on: spontaneously hypertensive rats; assay: Feeding tests on spontaneously hypertensive rats; type: in vivo, rat
Text: Administered was a preparation that contained the peptides according to the invention (PP), feed with intact whey protein (MP) as well as, as a control, a rat feed with captopril, a known ACE inhibiting agent as well as a placebo.
The basic importance of whey protein hydrolysates containing the tryptophan-containing peptides of the present invention for affecting the arterial blood pressure was objectified in animal tests on spontaneously hypertensive rats (FIG. 4). Here, the whey protein hydrolysate in comparison to a control diet caused a significant lowering of systolic blood pressure by 21±6 mm Hg after 7 weeks. Feeding captopril (ACE inhibitor of the first generation) lowered over the same time period the blood pressure by 28±7 mm Hg.
This implies comprehensive heart-protective and vessel-protective effects caused by the whey protein hydrolysate.

Row | Molecule | stability with respect to further digestion to the amino acids (proteases) | IC50 (ACE) [µM] | ACE inhibiting action (in words) (ACE) | also measured
1 | CC[C@H](C)[C@H](N)C(=O)N[C@@H](Cc1c[nH]c2ccccc12)C(=O)O [Ile-Trp] | stable with respect to further digestion to the amino acids | 0.7 |  | 
2 | CC(C)C[C@H](NC(=O)[C@@H](N)Cc1c[nH]c2ccccc12)C(=O)O [Trp-Leu] (H-Trp-Leu-OH; N-terminus and C-terminus assumed) | stable with respect to further digestion to the amino acids | 10 |  | 
3 | C[C@H](CS)C(=O)N1CCC[C@H]1C(=O)O [captopril] |  |  |  | lowering of systolic blood pressure ([1]; after 7 weeks, in comparison to a control diet): 28±7 mm Hg; reduced heart mass ([1]; in comparison to controls): 16%
4 | B1 |  |  | neither the inactivated enzymes, individually or as a mixture, nor the protein had an effect on ACE | 
5 | B2 |  |  | neither the inactivated enzymes, individually or as a mixture, nor the protein had an effect on ACE | 
